These results are taken from ChEMBL document CHEMBL2040799, “Exploring the Requirements for the Hydrophobic Scaffold and Polar Amine in inhibitors of M2 from Influenza A Virus” (ACS Med Chem Lett, 2011).

Experiment [1] can be described thus: Inhibition of Influenza A Virus M2 proton channel expressed in Xenopus laevis oocytes after 2 mins by two-electrode […] assay. The format is cell-based. The settings on record: Oocyte.
Experiment [2] has as its system Oocyte. The experiment in a line: Inhibition of Influenza A Virus M2 proton channel expressed in Xenopus laevis oocytes at 100 uM after 2 mins by two-electrode […] assay. The format is cell-based. A general note: Patch clamp records ionic current or voltage across a cell membrane.

`O=C1C2CC3CC(C2)CC1C3`: the IC50 in experiment [1] was found to be 29 µM. Further, the inhibition in experiment [2] came to 69%. In experiment [2], `O=C1CC2(CCCCC2)CC(=O)N1` returned an inhibition of 35%. In experiment [2], `NC1Cc2ccccc2C1` yielded an inhibition of 6%. `NC1C2C3CC4C2C(O)C2C1C3C42` (stereo not given) displayed an IC50 in experiment [1] of 24 µM. The molecule further yielded an inhibition in experiment [2] of 86%. In experiment [2], `NC12CC3CC(C1)CC(O)(C3)C2` displayed an inhibition of 5%. As for `NC(=O)C12CC3CC(CC(C3)C1)C2`, in experiment [2], the inhibition came out at 75%.

In turn, `NN1CCC2(CCCCC2)CC1` displayed an IC50 in experiment [1] of 7 µM. Further, the inhibition in experiment [2] turned out to be 96%.

On to `C1CC2CCC1CNC2`, for which the inhibition in experiment [2] came to 75%. Molecule `C1CC2CC1C1CNCC21` (stereo not given) yielded an inhibition in experiment [2] of 74%. Consider `N=C(NO)C12CC3CC(CC(C3)C1)C2`, for which the inhibition in experiment [2] stood at 72%. In turn, `N=C(N)NC12CC3CC(CC(C3)C1)C2` had an IC50 in experiment [1] of 15 µM. Further, in experiment [2], the inhibition came out at 97%. `CC1(C)C(N)C1(C)C` had an inhibition in experiment [2] of 28%.

Turning to `N=C(N)C12CC3CC(CC(C3)C1)C2`, in experiment [1], half-maximal inhibition (IC50) required 4 µM. In addition, the inhibition in experiment [2] is 95%.

Molecule `OC1C2C3CC4C2C(O)C2C1C3C42` (stereo not given) displayed an inhibition in experiment [2] of 76%. `NC1CCC2(CCCCC2)CC1` gave an inhibition in experiment [2] of 89%. For `N=C(N)NCC12CC3CCC(CC(C3)C1)C2`, the inhibition in experiment [2] worked out at 90%.

`CC(C)(C)CC(C)(C)N` showed an IC50 in experiment [1] of 21 µM. In experiment [2], the inhibition worked out at 87%. In turn, `NC1C2CC3CC(C2)CC1C3` (stereo not given) had an inhibition in experiment [2] of 92%. Turning to `NC(CO)C12CC3CC(CC(C3)C1)C2` (stereo not given), the IC50 in experiment [1] came out at 16 µM. The molecule further had an inhibition in experiment [2] of 90%. Turning to `C1CC2CC1C1CNC21` (stereo not given), the inhibition in experiment [2] amounted to 45%. As to `NC1CC2CC1C1CCCC21` (stereo not given), in experiment [1], half-maximal inhibition (IC50) was put at 9 µM. This molecule had an inhibition in experiment [2] of 94%. The like results for `OC12CC3CC(CC(C3)C1)C2` were, in that order, 20 µM and 85%. As to `NC12CCC3CC(CC(C3)C1)C2`, in experiment [1], the concentration for half-maximal inhibition (IC50) turned out to be 29 µM. Further, in experiment [2], the inhibition is 92%. With `NOC12CC3CC(CC(C3)C1)C2`, the inhibition in experiment [2] is 87%.

In experiment [1], `C1CCC2(CC1)CCNCC2` came in with an IC50 of 1 µM. Moreover, the inhibition in experiment [2] came out at 95%.

In turn, `NC12CC3CC(CC(C3)C1)C2` yielded an inhibition in experiment [2] of 91%. `NC12CC3CC(C1)CC(CO)(C3)O2`: in experiment [2], the inhibition was 13%. For `NN1C(=O)CC2(CCCCC2)CC1=O`, the inhibition in experiment [2] is 29%. Turning to `N=C(N)NC(=N)NC12CC3CC(CC(C3)C1)C2`, the inhibition in experiment [2] was found to be 70%. The same measure, in the same setting: for `OC1CCC(C2CC3CCC2C3)CC1O` (stereo not given) the value was 80%.

Consider `OC1CC2C3CCC(C3)C2C1O` (stereo not given), for which the inhibition in experiment [2] came to 50%.

`CC1(O)C2CC3CC(C2)CC1C3` (stereo not given) showed an IC50 in experiment [1] of 14 µM. For the same molecule, the inhibition in experiment [2] amounted to 86%. Turning to `NC12CC3CCC(CC(C3)C1)C2`, in experiment [1], the IC50 came to 24 µM. Also, the inhibition in experiment [2] amounted to 81%.

`O=S(=O)(O)C12CC3CC(CC(C3)C1)C2`: the inhibition in experiment [2] amounted to 3%. In experiment [1], `NNC1CCC2(CCCCC2)CC1` gave an IC50 of 31 µM. The molecule also gave an inhibition in experiment [2] of 79%. In turn, `CC(C)(C)c1ccc(CN)cc1` came in with an inhibition in experiment [2] of 40%. On the same count and under the same terms, for `CC12CC3(O)CC1(C)CC3(O)C2` the value was 40%; for `C1NC2CC3CC1CC(C3)C2`, 84%. Still for that read-out and setting: under `OC1C2C3CC4C1C1C2CC3C41` (stereo not given) stands 57%. In turn, `NC1C2C3CC4C1C1C2CC3C41` (stereo not given) gave an IC50 in experiment [1] of 8 µM. This molecule registered an inhibition in experiment [2] of 96%.

For orientation: IC50 means the concentration that inhibits the measured activity by half. A lower IC50 goes with inhibition by little substance. By inhibition is commonly meant the percentage by which the read-out fell short of the control. A lower inhibition goes with a weak effect.
